Results as given in patent EP3394070B1, “CRYSTALLINE FORMS OF QUINOLONE ANALOGS AND THEIR SALTS” (Senhwa Biosciences, Inc., priority 2015, dated 2017).
Counter-ions that a name gives are not always drawn.

Columns and labels:
[1] = Stability (HPLC purity) of acid salts in water, stirred at 42 °C for 3 days; assay type: physicochemical; conditions: for Purity % a/a after 3 days (HPLC): in water, stirred at 42 °C for 3 days
Protocol: (§1) Crystalline forms (i.e., salts and free base) of the present invention were analyzed by total area normalization (TAN).
The mixture was stirred at 42 °C for 3 days and each solution was analyzed by HPLC for concentration and purity. Table 11 Solubility and Purity of Acid Addition Salts

[2] = Solid-form stability of acid salts stored at elevated temperature (HPLC purity); assay type: physicochemical; conditions: for Purity % a/a after 3 days at 80 °C (HPLC): solid form stored at 80 °C
Protocol: as §1
Stability of the acid salts were also tested by storing the salts (solid forms) at an elevated temperature of 45 and 80 °C. Table 12 Stability of Acid Addition Salts

physchem = conditions: 42 °C, water, thermodynamic from solid
[3] = water, 72 h

| SMILES | Purity % a/a after 3 days (HPLC) [1] [% a/a] | Purity % a/a after 3 days at 80 °C (HPLC) [2] [% a/a] | solubility at 3 days (physchem) [mg/mL] | Starting Purity % a/a (HPLC) ([1]; before the 3 day test (time zero)) [% a/a] | Purity % a/a after 3 days at 45 °C (HPLC) ([2]; solid form stored at 45 °C) [% a/a] | Aqueous Solubility (Calculated) [3] [mg/mL] |
| --- | --- | --- | --- | --- | --- | --- |
| Cc1cnc(CNC(=O)c2c(=O)c3ccc(N4CCCN(C)CC4)nc3n3c2sc2ccccc23)cn1 [Free Base, 2-(4-Methyl-[1,4]diazepan-1-yl)-5-oxo-5H-7-thia-1,11b-diaza-benzo[c]fluorene-6-carboxylic acid (5-methyl-pyrazin-2-ylmethyl)-amide] | 99.58 | 99.67 | < 100 |  |  |  |
| Cc1cnc(CNC(=O)c2c(=O)c3ccc(N4CCCN(C)CC4)nc3n3c2sc2ccccc23)cn1 [HCl] | 88.62 | 98.71 |  | 98.78 | 98.48 | > 100 |
